Earlier results in patent publication US20040116411A1, “Combination HIV therapy including camptothecin” (priority 2000, published 2004).

What was measured:
[1] = system: human CD4+ lymphocytic cell line RPMI 8402; conditions: at the concentration used
[2] = system: equine infectious anemia virus (EIAA); conditions: chronically infected cells
[3] = system: Moloney murine leukemia virus (MMLV)
HIV-1 LTR = conditions: human CD4+ lymphocytic cell line RPMI 8402
[4] = system: viral-associated topoisomerase I; conditions: HIV infection of human H9 cells, in vitro
[5] = system: rous sarcoma virus (RSV) promoter
HIV = conditions: by disrupting gp41 conformational changes associated with membrane fusion

For CC[C@@]1(O)C(=O)OCc2c1cc1n(c2=O)Cc2cc3c(CN(C)C)c(O)ccc3nc2-1 [Topotecan], the antiviral effects (HIV-1; CPT-K5 cell line, PBMC acutely infected with clinical isolates, OM10.1 cells latently infected, activated by TNF-α) is listed as “antiviral effects of topotecan were observed” and the “acute and chronic HIV-1 infections” value (HIV-1; in vitro) is listed as “inhibit”.
In the case of CC[C@@]1(O)C(=O)OCc2c1cc1n(c2=O)Cc2cc3ccccc3nc2-1 [camptothecin, 20(S)-camptothecin], the “expression of gro, a cellular gene” value (gro) is listed as “did not inhibit”, the cell survival [1] is listed as “not significantly affected” and the EIAA replication [2] is listed as “inhibits”. The MMLV replication [3] was “inhibits”, the “expression of downstream reporter gene under the control of HIV-1 LTR” value (HIV-1 LTR) was “inhibitory effects” and the “activity of the viral-associated topoisomerase I” value [4] was “significantly reduced”. For the same compound, the “promoter activity of rous sarcoma virus (RSV)” value [5] was “did not inhibit”.
For enfuvirtide, the infection in vitro (HIV) is listed as “inhibit infection in vitro”.
